Values of other authors in patent US7276500B2, “Substituted amides, their preparation and use” (Abbott GmbH & Co. KG, priority 1998, dated 2007).

Columns and labels:
[1] = tested on: calpain (cleavage of pp60src in platelets); conditions: Oda et al., J. Biol. Chem. 1993
[2] = tested on: calpain; conditions: literature statement
[3] = tested on: cell membranes; conditions: literature statement

Compound	cleavage of pp60src after activation of platelets [1]	calpain inhibition [2]	crossing of cell membranes [3]	effect on cells [3]
CCCC[C@@H](C=O)NC(=O)[C@H](CC(C)C)NC(=O)OCc1ccccc1 [calpeptin]	can be prevented			
CC(=O)N[C@@H](CC(C)C)C(=O)N[C@@H](CC(C)C)C(=O)N[C@H](C=O)CCCNC(=N)N [leupeptin]		good calpain inhibitors	cross cell membranes only poorly	only a poor effect on cells
Ph—CONH—CH(CH2Ph)—CO—COCOOCH3		only a weak calpain inhibitor		
CC(C)C[C@H](NC(=O)[C@H]1O[C@@H]1C(=O)O)C(=O)NCCCCN=C(N)N [E 64]		good calpain inhibitors	cross cell membranes only poorly	only a poor effect on cells
